Results as given in publication PMC9818267, “Brain Natriuretic Peptide Protects Cardiomyocytes from Apoptosis and Stimulates Their Cell Cycle Re-Entry in Mouse Infarcted Hearts” (Cells, 2022).
No end group written: not given here.

Tests used:
Akt = assay: Western blot pAkt/Akt in adult CMs stimulated in vitro; format: cell-based, mouse; details: adult CMs stimulated with BNP for 2–3 h in vitro, vs untreated
Experimental: (§1) CM isolations were performed thanks to the Langendorff-Free method. […] Thereafter, the heart was removed from the chest and the left ventricle was perfused with enzymatic solution containing collagenase II (120 U/mL), collagenase IV (120 U/mL) (Worthington, Biochemical Corporation, USA) and protease XIV (0.05 mg/mL or 0.175 U/mL) (Sigma-Aldrich, Merck, Darmstadt, Germany). In each experiment, a full digestion of the heart was obtained. After digestion, cardiac cells were dissociated by gentle pipetting, filtered and collected after 25 min sedimentation. For infarcted hearts, the tissue was separated into the three zones (ZI, BZ and RZ). The three different areas were weighted before gentle pipetting.
Total proteins were extracted from CMs isolated from adult infarcted and unmanipulated neonatal and adult hearts. Proteins were transferred to nitrocellulose membranes (Biorad) before incubation with primary antibodies overnight at 4 °C. Secondary antibodies were added 1 h at RT in the dark (Supplementary File S1). The signal was detected and quantified with the Odyssey infrared imaging system (LI-COR. Biosciences, Bad Homburg, Germany). All results were normalized to the tubulin protein level or to the total protein level thanks to stainings with the Revert 700 Total protein Stain (LI-COR).

ERK = assay: Western blot pERK/ERK in CMs isolated from BNP-treated hearts; format: in vivo, mouse; details: CMs isolated from BNP-treated adult unmanipulated hearts (injection 2–3 h before isolation), vs saline
Experimental: (§2) BNP was injected into infarcted adults, and unmanipulated neonatal and adult mice. Directly after surgery, NaCl (saline) or BNP (1.3 µg/20 g in 20 µL) was injected into the left ventricle cavity. At 24 h after MI, mice were intraperitoneal (ip) injected with BNP (2 µg/20 g mice) or saline every 2 days. C57BL/6 mice were sacrificed 1- and 14 days post-MI and Myh6 MerCreMer mice were sacrificed 14 days post-MI (Figure 1A). Neonatal C57BL/6 mice (3 days after birth) were injected ip with NaCl or BNP every two days (1 µg/2 g; Bachem; synthetic mouse BNP (1–45) peptide (catalog number H-7558)). Mice were sacrificed 11 days after birth (Figure 1B). Eight week old C57 BL/6 mice or Myh6 MerCreMer unmanipulated mice were injected ip with BNP (2 µg/20 g mice) or NaCl every two days (Figure 1C). Two weeks after the first injection, mice were sacrificed. To assess for the implication of the ERK signaling pathway in the BNP effect on CMs, PD0325901 (60 µg/20 g mice in 80 µL) was administered by gavage in adult unmanipulated mice 1 h before BNP injection (2 µg/20 g mice).
CM isolations were performed thanks to the Langendorff-Free method. […]
Total proteins were extracted from CMs isolated from adult infarcted and unmanipulated neonatal and adult hearts. […] The signal was detected and quantified with the Odyssey infrared imaging system (LI-COR. Biosciences, Bad Homburg, Germany). […]

caspase 3+ CMs = assay: Immunostaining of caspase 3+ CMs in infarcted area; format: in vivo, mouse; details: infarcted area 1 day after MI, BNP vs saline
Experimental: Cells or OCT heart sections (5 µm-thick cryosections) were washed in PBS 1X and fixed in paraformaldehyde (2%) or formol (4%) for 10 min at RT. After 10 min of permeabilization (0.3% Triton x-100 in PBS) and one hour of blocking with normal serum, sections were probed with primary antibodies overnight at 4 °C (Supplementary File S1). The second day, the secondary antibody was added on cells or heart sections. Slides were mounted with Dabco (Sigma) and pictures were captured with Nikon Eclipse TS100 or 90i microscope. Images were processed with Adobe Photoshop CC2015.

cardiomyocytes (CMs) [1] = assay: Cardiomyocyte isolation (Langendorff-Free method) and counting; format: in vivo, mouse
Experimental: as §2, §1
Total CM cell numbers were counted before sedimentation by two different people and in blinded experiments. The CMs were easily identified based on their size and on Troponin I expression (for all experiments with flow cytometry analysis). Round and rod-shaped CMs were counted and their numbers related to the heart, to the mg of tissue and also to the control hearts (saline-injected hearts) always performed in parallel the same day than BNP-treated hearts (i.e., with the same digestion buffer).

Troponin I+ GFP+ cells = assay: Flow cytometry count of Troponin I+ GFP+ cells in Myh6 MerCreMer hearts; format: in vivo, mouse; details: unmanipulated adult Myh6 MerCreMer mice, tamoxifen then BNP, two weeks after first BNP injection, vs saline
Experimental: Before surgery and/or BNP treatments, adult Myh6 MerCreMer mice (6-week-old) were injected with Tamoxifen (Sigma, Merck, Darmstadt, Germany, T5648) at 40 mg/kg to activate the Cre recombinase. Tamoxifen was dissolved in ethanol to a concentration of 100 mg/mL and emulsified in peanut oil to a final concentration of 10 mg/mL. A total of 1 mg Tamoxifen/25 g body weight was injected intraperitoneally (i.p) to adult mice one time. Two weeks after tamoxifen injection, 90–95% of pre-existing CMs expressed the GFP protein [11].
BNP was injected into infarcted adults, and unmanipulated neonatal and adult mice. Directly after surgery, NaCl (saline) or BNP (1.3 µg/20 g in 20 µL) was injected into the left ventricle cavity. At 24 h after MI, mice were intraperitoneal (ip) injected with BNP (2 µg/20 g mice) or saline every 2 days. C57BL/6 mice were sacrificed 1- and 14 days post-MI and Myh6 MerCreMer mice were sacrificed 14 days post-MI (Figure 1A). […]
Adult CMs were isolated using enzymatic digestion (see above). […] Cells were analyzed with CytoFLEX (Beckmann Coulter) cytometer and data generated using FlowJo 10 software (10.7.1 version, Becton Dickinson and Compagny, Franklin Lakes, NJ, USA). […] Cells were stained with DAPI and only the DAPI negative cells (living cells) were analyzed.

cardiomyocytes (CMs) [2] = assay: CM nucleation status and cross-sectional area; format: in vivo, mouse; details: vs saline
Experimental: After 25 min sedimentation, CMs were used for molecular analysis, Western blot analysis, flow cytometry analysis or fixed with 2.5% PFA 15 min at room temperature (RT) and stained with DAPI to evaluate the frequency of mono and bi-nucleated CMs.
CM area was assessed by α actinin and laminin stainings and image J software (1.53t version from the 24.08.2022, Mac OX X, Bethesda, MD, USA) for processing using CIF outliner cell Plugin. Only CMs with circularity >0.5 were considered.

Q: What does the source list for “Brain Natriuretic Peptide (SQGSTLRVQQRPQNSKVTHISSCFGHKIDRIGSVSRLGCNALKLL; not fully specified; ends and bridges not checked; UniProt P40753 77-121, looked up) [BNP, synthetic mouse BNP (1–45) peptide (Bachem, catalog number H-7558)]”?
A: pAkt/Akt ratio increase (Akt): 2.5 ×; pERK/ERK ratio increase (ERK): 1.6 ×; number of caspase 3+ CMs change (caspase 3+ CMs): −13%; CM number per mg tissue (cardiomyocytes (CMs) [1]; BZ and RZ of infarcted hearts, BNP vs saline): No change; CM cell number per heart (cardiomyocytes (CMs) [1]; BZ or RZ of infarcted hearts, BNP vs saline): No increase; increase of number of CMs per mg tissue (cardiomyocytes (CMs) [1]; ZI of infarcted hearts, BNP vs saline): 2 fold; increase of number of CMs related to saline-injected littermates (cardiomyocytes (CMs) [1]; ZI of infarcted hearts, same-day isolation with same enzymatic cocktail): 2.2 fold; increase of total number of CMs per heart (cardiomyocytes (CMs) [1]; infarct area (ZI) of infarcted adult hearts, BNP 2 µg/20 g ip every 2 days, vs saline): 81%; CM cell number in NPR-A deficient hearts (cardiomyocytes (CMs) [1]; unmanipulated adult NPR-A −/− mice, saline n = 4, BNP n = 3): did not change; increase of number of CMs related to saline-injected littermates (cardiomyocytes (CMs) [1]; unmanipulated adult hearts): 28.5%; increase of total number of CMs per heart (cardiomyocytes (CMs) [1]; unmanipulated adult hearts, BNP 2 µg/20 g ip every 2 days for 2 weeks, vs saline): 19%; increase of number of CMs per mg tissue (cardiomyocytes (CMs) [1]; unmanipulated adult hearts, BNP vs saline): 26%; number of CMs in the presence of ERK inhibitor (cardiomyocytes (CMs) [1]; unmanipulated adult mice, PD0325901 (60 µg/20 g) 1 h before each BNP injection, 2 weeks, n = 5 per group): did not increase; increase of number of CMs related to saline-injected littermates (cardiomyocytes (CMs) [1]; unmanipulated neonatal hearts): 23%; increase of total number of CMs per heart (cardiomyocytes (CMs) [1]; unmanipulated neonatal hearts, BNP 1 µg/2 g ip every 2 days from day 3, sacrifice day 11, vs saline): 18%; increase of number of CMs per mg tissue (cardiomyocytes (CMs) [1]; unmanipulated neonatal hearts, BNP vs saline): 44%; increase of number of Troponin I+ GFP+ cells (Troponin I+ GFP+ cells): 28%; percentages of mononucleated CMs (cardiomyocytes (CMs) [2]; all BNP-treated hearts (infarcted, neonatal, adult)): increased; frequency of small CMs (cross-sectional area) (cardiomyocytes (CMs) [2]; all areas of BNP-treated infarcted hearts): significantly higher
